The target of series [1] is T1, CYP2A6 (Homo sapiens, UniProt P11509).
T1 sequence (P11509 1-494): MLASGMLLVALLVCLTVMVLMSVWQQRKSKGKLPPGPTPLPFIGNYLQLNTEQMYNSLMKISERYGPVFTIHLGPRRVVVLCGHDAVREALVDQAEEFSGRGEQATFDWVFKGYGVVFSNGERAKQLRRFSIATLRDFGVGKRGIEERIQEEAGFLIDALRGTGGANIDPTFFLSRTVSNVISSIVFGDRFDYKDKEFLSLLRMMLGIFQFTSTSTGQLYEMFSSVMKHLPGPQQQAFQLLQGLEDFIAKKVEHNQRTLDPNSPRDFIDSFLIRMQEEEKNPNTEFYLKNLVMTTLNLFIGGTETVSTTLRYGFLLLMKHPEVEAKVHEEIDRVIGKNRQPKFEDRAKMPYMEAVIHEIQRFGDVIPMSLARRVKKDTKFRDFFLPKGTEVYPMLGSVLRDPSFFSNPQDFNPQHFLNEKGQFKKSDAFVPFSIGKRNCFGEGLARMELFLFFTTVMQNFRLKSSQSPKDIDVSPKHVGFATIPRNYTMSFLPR
The conditions noted are these: recombinant enzyme.
Source text: (§1) Since this type of inhibition also requires that the inhibitor is initially metabolized by the target enzyme, MBIs may be identified by evaluating the inhibition in the presence and absence of cofactors that are required for activity, such as NADPH for CYPs.

The target in series [2] is T1, CYP2A6. Kind of series: biochemical.
Source text: A 96-well plate assay and fluorescence spectroscopy may be used to quantify the product, 7-hydroxycoumarin.
Data was fit using GraphPad Prism.
The conditions of series [3]: in vivo; cited from earlier work.
Series [4] has as its target T1, CYP2A6. Kind of series: biochemical. The source holds these as a separate data set.
Source text: as §1
Series [5] concerns the target T2, CYP2A6 (Homo sapiens, UniProt P11509, K28S/Q25K/Q26K/R27T/W24A).
T2 sequence (P11509 with tags, fused parts or gaps limits assumed): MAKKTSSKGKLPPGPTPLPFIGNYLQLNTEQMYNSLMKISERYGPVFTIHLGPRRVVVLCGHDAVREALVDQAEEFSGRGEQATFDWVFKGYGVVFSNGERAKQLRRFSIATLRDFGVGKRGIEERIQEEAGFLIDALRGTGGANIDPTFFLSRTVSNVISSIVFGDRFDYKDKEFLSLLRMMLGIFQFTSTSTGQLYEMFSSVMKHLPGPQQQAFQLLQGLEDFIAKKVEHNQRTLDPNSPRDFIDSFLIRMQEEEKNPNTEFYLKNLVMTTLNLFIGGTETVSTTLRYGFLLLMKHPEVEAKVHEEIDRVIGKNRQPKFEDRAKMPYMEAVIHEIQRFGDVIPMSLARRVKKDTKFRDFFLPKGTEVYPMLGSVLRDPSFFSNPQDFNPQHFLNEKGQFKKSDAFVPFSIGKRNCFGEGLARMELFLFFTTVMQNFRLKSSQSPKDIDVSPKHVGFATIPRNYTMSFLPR
Kind of series: biochemical.
Procedure: Spectral binding studies were conducted using purified heterologously expressed CYP2A6 in Escherichia coli. […] Absorbance changes (A386-A418) may be plotted against added ligand concentrations in order to determine dissociation constants.
In more detail, the CYP2A6 enzyme may be heterologously expressed in Escherichia coli and purified. The expression vector, pKK2A6dH may be used to express the enzyme. The vector contains a cDNA sequence that codes for human CYP2A6 with a deletion of the N-terminal transmembrane sequence, an alteration of several residues at the modified N-terminus to increase expression, and four histidine residues added at the C-terminus to aid in purification. […] Expression from the vector may be induced with the addition of IPTG to bacterial cultures. δ-Aminolevulinic acid is added during expression to supplement heme biosynthesis. The enzyme may be purified following previously reported protocols. Briefly, following cell disruption, the solubilized enzyme may be purified using Ni^2+-affinity chromatography and cation-exchange (CM sepharose) chromatography, which may lead to protein of high purity and P450 content.

For series [6] the following is noted: rat, in vivo, po, 250 mg/kg; cited from earlier work.
On the set-up of series [7]: species or system humans. The conditions noted are these: human. As for the experimental part:
This has also observed in rats, for which full pharmacokinetic studies are available. Converting the dose in rats to humanized equivalent doses can estimate the doses necessary to achieve low μM concentrations of CA in humans. […] In rats a single 250 mg/kg oral dose generated a t-CA blood concentration of 7.6 μM. With the BSA method, t-CA doses of 32 mg and 320 mg per day are estimated to achieve concentrations of 0.1 and 1 μM in humans.

Series [8] addresses T1, CYP2A6. The series is described as follows: Time-dependent inhibition screen, recombinant CYP2A6 system, coumarin hydroxylase readout.
Source text: as §1
Series [9] has as its target T1, CYP2A6. Kind of series: in vitro. The conditions noted are these: recombinant CYP2A6, probe coumarin.
Source text: as §1
The conditions of series [10]: obtained from PubChem and ChemSpider; cited from earlier work.
The target in series [11] is T3, CYP2A6-mediated nicotine metabolism (Homo sapiens, UniProt P11509).
T3 sequence (P11509 1-494): T1 sequence (P11509 1-494)
Kind of series: Model (Equation 2) predicting change in nicotine AUC from mechanism-based inhibition parameters. The conditions noted are these: Table 5, predicted nicotine AUC.

Structures are written as SMILES. Read-outs that look alike come from different tables or passages of the source.

The text below walks through data of US11865086B2, “Cinnamaldehyde derivative compounds and methods of use for cinnamaldehyde derivative compounds nicotine cessation” (Pacific University, priority 2018, dated 2024).

The term IC50 denotes the concentration needed to halve the response being measured. High values mean weaker potency in that assay, low ones greater potency in that assay. In general, Ki refers to a measure of affinity in units of concentration, obtained from inhibition or displacement. A high value points to lower affinity. One may read the Kd as the constant that tells how readily two partners part at equilibrium. A low value points to a tighter complex. In the case of `O=C/C=C/c1ccccc1` [t-CA, trans-cinnamaldehyde], the “time-dependent inhibition of CYP2A6, result in words” value in [1] is on record as “increases with time”. The IC50 in [2] turned out to be 6.9 ± 1.2 µM. Moreover, in series [3], the “absorption upon oral administration” value is “completely absorbed”. In series [4], this compound showed a Ki of 27.2 µM. Besides, the dissociation constant Kd in series [5] was determined as 14.9 µM. The t-CA blood concentration in series [6] was 7.6 µM. For the same compound, the entries for the “estimated t-CA dose” value in series [7] (0.1 μM) and in [7] (1 μM) were 32 mg per day and 320 mg per day, respectively.

By kinact is commonly meant the rate constant of inactivation at saturating inhibitor. Usually kinact/KI stands for the maximal inactivation rate divided by the concentration that gives half of it. As a reminder, the Log P is a log measure of how a compound divides between an organic and an aqueous phase. Take `O=C/C(Br)=C/c1ccccc1` [α-bromo-CA, α-bromocinnamaldehyde]: the half-inhibitory concentration (IC50) in series [2] was 2.8 µM. In series [8] (Table 5), the inactivation rate constant (kinact) entry is “.017 min⁻¹” and the kinact/kI was 0.000463. Moreover, the “Fold difference (with respect to CA)” value in series [8] (kinact/kI relative to t-CA) worked out at 0.32. Also, in series [8] (with NADPH, 7-hydroxycoumarin formation), the “time-dependent inhibition of CYP2A6, result in words” value is on record as “less potency as compared to t-CA”. Moreover, in [9], the inactivation rate constant (kinact) was 0.000283 s⁻¹ and the kinact/KI is 7.83 M⁻¹ s⁻¹. This compound had a Ki in series [4] of 36.3 µM. The lipophilicity (Log P) in [10] is recorded as 2.7. Besides, the AUC fold increase in series [11] was 1.35-1.84. The compound further gave a Kd in series [5] of 8.2 µM.
